# Data: patent publication US6599878B2, “Superoxygenating blood substitutes based on hemoglobin and dihydropyidine compositions” (priority 1992, dated 2003)
# Values joined by “and” are separate entries in the source; they are usually repeats but may differ in a detail not shown here. Equal entries are not always repeated. Marks after values point to notes of the source that are not given here.
# Assays:
# [1] = test system: nitric oxide synthase; assay: L-NAME during Ab-HD pilot study; details: dog, in vivo
# Method: Approximately 6 mg/kg L-NAME was administered i.v. bolus during Ab-HD.
# [2] = BAEE during oxyHb-HD pilot study; assay type: in vivo, dog; details: n = 3
# Description: (§1) In another pilot study, we examined if infusion of a nitric oxide substrate (N-benzoyl-L-arginine ethyl ester, i.e. BAEE) would override the hypothesized NO scavenging by oxyHb and thereby mimic Ab-HD hemodynamics and cGMP production shown in Tables 8-11. While BAEE administration increased plasma cGMP levels and caused significant vasodilation as evidenced by the decreased mean arterial pressure, cardiac output was not increased (Table 12).
# [3] = test system: cyclic GMP; assay: BAEE during oxyHb-HD pilot study; assay type: in vivo, dog; details: for cGMP: plasma
# Description: as §1
# [4] = BAEE reversal of L-NAME effects in Ab-HD dogs; assay type: in vivo; details: BAEE after L-NAME in AB-HD dogs
# Description: With BAEE, the original hemodynamics of Ab-HD alone were expected to be evident, i.e. increased cardiac output.
# [5] = Properties of the hemoglobin product and colloid solutions; assay type: physicochemical
# Method: (§2) Blood pH, PCO2, PO2 and Na^+, K^+ and Ca^++ concentrations were measured with a Nova Stat Profile 1 analyzer (Waltham, Mass.). Plasma colloid osmotic pressure (COP) was determined before and after hemodilution with a Wescor 4400 Colloid Osmometer (Logan, Utah). […] Hematocrit was determined volumetrically. Hemoglobin (gm %), methemoglobin (%) and percent oxygen saturation were measured with an Instrumentation Laboratories 482 CO-Oximeter (Lexington, Mass.). Hemoglobin oxygen content was measured with the co-oximeter and added to the dissolved oxygen (0.003×PO2) to give total blood oxygen content (vol %).
# [6] = In vivo test of hemoglobin product for common adverse effects during hemodilution; details: anesthetized dog, hemodilution to hematocrit 50% of baseline
# Method: The hemoglobin product was also tested in vivo on dogs for common adverse effects of therapeutic products which are administered intravascularly. The hemodilution protocol used and the physiologic tests performed are standard in the art and were similar to that described in Rabiner et al., J. Exp. Med., 86, 455-463 (1967); Sunder-Plassmann et al., supra; and Crystal et al., Anesth. Analg., 67, 211-218 (1988) Briefly, the hemoglobin product was infused into a venous access of an anesthetized dog with simultaneous withdrawal of arterial blood on a one-to-one basis at about 25 ml/minute until hematocrit was 50% of baseline (about 20 vol %). Tests for pyrogenic effects, hypotensive effects, arrhythmia, inotropic effects, bradycardia, tachycardia, hypovolemia, dysoria, and coagulopathy were all negative.
# [7] = Systemic hemodynamics in anesthetized hemodiluted dogs (Example I); assay type: in vivo, mongrel dogs
# Method: Twenty-four conditioned, heartworm-free male mongrel dogs (20 to 30 kg) were anesthetized with sodium pentobarbital (30 mg/kg i.v.) followed by an i.v. maintenance dose of 4 mg/kg/hour. After intubation of the trachea with a cuffed endotracheal tube, the dog was mechanically ventilated (Siemens 900D Servoventilator) with 100% oxygen, tidal volumes of 10 to 12 ml/kg and respiration at a rate to achieve normocarbia. […] Sodium bicarbonate was not administered. The body temperature of the dog was maintained at 39 C. with water-circulated heating pads.
# The dog was placed supine and a polyethylene catheter (PE 200) was inserted into the thoracic aorta via the left femoral artery for measurement of blood pressure. Two small-bore (PE 90) heparin-filled catheters of different lengths were placed in the abdominal aorta via the right femoral artery to collect reference blood samples containing radioactive microspheres for measurement of regional blood flow. Wide-bore (PE 240) catheters were placed in the right femoral vein and in the right carotid artery, for isovolemic exchange transfusion and for the administration of intravenous fluids and collection of arterial blood samples. A 5 french thermodilution catheter was advanced into the pulmonary artery via the right external jugular vein for measurement of cardiac output and right atrial pressure. A Foley catheter was inserted into the bladder for urine collection.
# Under fluoroscopy, a 5 french volume-conductance catheter (Mansfield Webster) was inserted via the left carotid artery across the aortic valve to the apex of the left ventricle to measure instantaneous volume.
# The animal was then placed on its right side and paralyzed with doxacurium (0.05 mg/kg) to perform a left thoracotomy in the fourth intercostal space. The exposed lung was retracted with gauze. Five cm H2O positive end-expiratory pressure was instituted to prevent atelectasis. A small incision was made in the pericardium near the left atrial appendage. The appendage was protracted and a PE 90 catheter, for microsphere injection, inserted into the ventricle via pressure verification and then pulled back into the atrium. A 3 french micromanometer-tipped pressure catheter (Millar) was then inserted via the appendage into the left ventricle for pressure recording. Both catheters were secured with a ligature around the appendage and distally taped to the animal. The exposed thoracic surface was covered with plastic film to prevent evaporation.
# Continuous measurements of heart rate (HR), pulsatile aortic pressure, mean aortic pressure (MAP), left ventricular peak pressure (LVPP), rate-of-change of LVPP (dP/dt), LV end diastolic pressure (LVEDP), LV volume, and right atrial pressure (RAP) were recorded on an analog thermal array recorder (Gould Model TA4000) and stored on a computerized data acquisition system (Halcom, Inc.) Cardiac output (CO) was measured in triplicate using a Spectramed Hemoprol computer. Systemic vascular resistance (SVR) was calculated from (MAP−RAP)÷CO. Systemic vascular hindrance (SVH) was calculated from SVR÷η, where η is the apparent viscosity of blood in centipoise (cp). At high flow rates (shear rates≈200 s^−1) assumed in the aorta, η is 4.0 cp for hematocrit (Hct) of 40 vol % and 2.1 cp for Hct of 20 vol %. Stroke volume was derived from CO÷HR. LV stroke work (LVSW) was calculated from (systolic AoP−LVEDP)×SV×0.0136.
# [8] = Blood gases, electrolytes, hemoglobin, colloid osmotic pressure and blood volume (Example I); assay type: in vivo, mongrel dogs; details: for Plasma Hb: anesthetized dogs
# Method: as §2
# Total blood volume was computed from plasma volume (indicator dilution of iodinated I^125-albumin, Mallinckrodt Medical, Inc., St. Louis, Mo.) and whole body hematocrit.
# Following cannulation all animals were hydrated with 5 mg % albumin to increase filling pressure (LVEDP) above 5 mm Hg and to bring hematocrit to near 40 vol %. Twelve dogs underwent isovolemic exchange of blood for 10 gm % hemoglobin to hematocrit 50% of baseline.
# (§3) Once MAP stabilized (≈5-10 min), hemodynamic measurements, blood gases and other samples were obtained.
# [9] = Whole body oxygenation (Example I); assay type: in vivo, mongrel dogs; details: for CaO2: arterial oxygen content
# Method: as §2
# Whole body oxygen extraction ratio (O2 extr, %) was calculated from arteria-mixed venous oxygen content difference C(a−v)O2 divided by the arterial oxygen content (CaO2). Whole body oxygen consumption (WBVO2) in ml/minute was determined using the Fick equation, WBVO2=CO×C(a−v)O2 Oxygen delivery (DO2) in ml/minute was calculated from CaO2×CO.
# Upon arrival in the laboratory, typically all dogs had hematocrits of 45 vol % or greater and filling pressures (LVEDP) of 5 mm Hg or less. Following cannulation all animals were hydrated with 5 mg % albumin to increase filling pressure (LVEDP) above 5 mm Hg and to bring hematocrit to near 40 vol %. Twelve dogs underwent isovolemic exchange of blood for 10 gm % hemoglobin to hematocrit 50% of baseline. […] The colloid pressure of 10 gm % hemoglobin and 8 gm % albumin (both about 40 Torr) is about twice that of dog plasma and after in vivo dilution would be expected to sustain plasma volumes at baseline values or greater.
# as §3
# [10] = Regional blood flows by radioactive microspheres (Example I); assay type: in vivo, mongrel dogs; details: dogs, hematocrit 50% of control
# Method: Briefly, prior to injection, microspheres labeled with Sc^46, Sr^85, Sn^113 or Ce^141 were vortexed and sonicated. Approximately 30 microcuries (1×10^6 microspheres) were injected into the left atrium of a dog. Beginning with each microsphere injection, duplicate reference blood samples were collected at a constant rate (6 ml min^−1) for 3 minutes from the femoral PE 90 catheters. Radioactivity of the duplicate samples differed by less than 10%, indicating adequate mixing of the microspheres in the left ventricular output. To maintain isovolemic conditions during reference sampling, a 5% albumin solution was infused simultaneously.
# After the final injection of microspheres, the heart was stopped by intravenous injection of potassium chloride. Skin and bone (rib) were sampled from a shaved area distal to the thoracotomy. Skeletal muscle samples were taken from the hindlimb, back, forelimb and head. The GI tract was excised from the esophageal sphincter to the anus. All mesentery and omentum were trimmed. The stomach was separated from the tract. These and all other organs were weighed. Multiple samples were taken from each organ and transferred to a tared counting tube.
# The tissue and reference samples were weighed and analyzed for radioactivity with a gamma scintillation counter equipped with a multichannel analyzer (Packard Instrument, Downers Grove, Ill.). Isotope separation was accomplished by standard techniques of gamma spectroscopy. Values for organ blood flows (BForgan) in ml min^−1 were calculated from the equation BForgan=ABF×(MC÷AC)×organ weight (g), where ABF is the rate of arterial reference sampling (ml/minute), MC is the microsphere radioactivity (counts min^−1 g^−1) in the tissue samples, and AC is the total microsphere radioactivity (counts/minute) in the arterial reference samples. The fractional distribution of cardiac output to each organ was computed from BForgan÷ΣBForgan, where ΣBForgan is the sum of all organ flows. Skeletal muscle, skin and bone weights were calculated as 40%, 9% and 8% of body weight, respectively.
# [11] = test system: cyclic GMP; assay: Plasma cyclic GMP and arterial pressure before and after hemodilution and SNP (Example II); assay type: in vivo, dog; details: hemodilution alone, n = 5, mean ± sem
# [12] = test system: cyclic GMP; assay: Regional interstitial cGMP by microdialysis; assay type: in vivo, dog; details: during hemodilution alone, n = 4
# Description: An in vivo method that is based on direct microdialysis of the organ tissue was used to examine the regional interstitial production of cGMP. The microdialysis technique uses a small dialysis fiber (250 μm diameter) that is inserted into the tissue and perfused to sample extracellular metabolites.
# [13] = BAEE 400 μg/kg/min during oxyHb-HD, n = 3
# [14] = anesthetized dogs, hemodilution to hematocrit 50% of baseline
compound,measurement,setting,value
"COC(=O)[C@@H](N)CCCNC(=N)N[N+](=O)[O-] [L-NAME, L-nitro arginine methyl ester]",CO,[1],2413 ± 1721+ ml/min
same,MAP,[1],152 ± 8*+ mm Hg
same,cGMP,[1],17.38 ± 0.98*+ μg/ml
"CCOC(=O)[C@H](CCCNC(=N)N)NC(=O)c1ccccc1 [BAEE, N-benzoyl-L-arginine ethyl ester, reference compound]",CO,[2]; BAEE 400 μg/kg/min during oxyHb-HD,2376 ± 233 mL/min
same,MAP,[3]; [13],108 ± 8*+ mm Hg
same,cGMP,[3]; [13],24.44 ± 1.05*+ μg/ml
same,reversal of cardiac output to the high levels of Ab-HD alone,[4],not reversed
HbHD: Purified canine hemoglobin (10 gm %) used for isovolemic hemodilution,% carboxyhemoglobin,[5],<0.5%
same,% methemoglobin,[5],<1%
same,Ca^+,[5],1.2 mmol/L
same,Colloid osmotic pressure,[5],40 mm Hg
same,Davenport diagram,[5],Normal
same,Haldane effect,[5],Normal
same,Hill plot,[5],Normal
same,K,[5],3.4 mmol/L
same,Na,[5],150 mmol/L
same,Osmolality,[5],310 mOsmol/kg
same,Oxygen capacity,[5],13.5 vol %
same,Oxygen content,[5],13.5 vol %
same,PCO2,[5],15 mm Hg
same,PO2,[5],200 mm Hg
same,Total Hb concentration,[5],10 gm %
same,Viscosity,[5],≈2.0 cp
same,pH,[5],6.9
same,COP of colloid solution,"[5]; 8% albumin, 10% hemoglobin, Wescor 4400 Colloid Osmometer",40.8±1.0 mm Hg
same,Bohr coefficient,[5]; pH 7.2-7.4,0.54 (pH 7.2-7.4)
same,P50,[5]; pH 7.4,24 mm Hg (pH 7.4)
same,"Tests for pyrogenic effects, hypotensive effects, arrhythmia, inotropic effects, bradycardia, tachycardia, hypovolemia, dysoria, and coagulopathy",[6],negative
same,LV Elastance,[7]; [14],4.91 mm Hg ml
same,LV dP/dtmax,[7]; [14],1713 mm Hg/sec
same,LVPP,[7]; [14],154 mm Hg
same,LVSW,[7]; [14],29.2 g m/beat
same,MAP,[7]; [14],136 mm Hg
same,heart rate,[7]; [14],153 beats/min
same,"mean aortic, right atrial and LV end-diastolic (systemic) pressures vs control","[7]; dog, in vivo",not changed
same,systemic vascular resistance vs control,"[7]; dog, in vivo",not changed
same,effect on cardiac output and stroke volume,[7]; vs control,did not change
same,increase in systemic vascular hindrance,[7]; vs control,~100%
same,Plasma Hb,[8],4.6 g/100 ml
same,Plasma Hb,[8]; listed as hemoglobin,4.6 g/100 ml
same,plasma hemoglobin as share of total whole blood hemoglobin concentration,"[8]; dog, in vivo",approximately 40%
same,"hemoglobin excreted in urine, share of the approximately 100 grams infused",[8]; hemoglobinuria,less than 1%
same,C(a-v)O2,[9]; anesthetized dogs,6.1 ml/100 ml
same,CvO2,[9]; anesthetized dogs,8.8 ml/100 ml
same,CaO2,[9]; anesthetized dogs,14.9 ml/100 ml
same,CaO2,"[9]; anesthetized dogs, listed as hemoglobin",14.9±0.4 ml/100 ml
same,DO2,[9]; oxygen delivery = CaO2 x CO,302 mL/min
same,decrease in oxygen delivery,[9]; vs control,30%
same,reduction in arterial oxygen content,[9]; vs control,24%
same,WBVO2,[9]; whole body oxygen consumption,125 mL/min
same,O2 extr,[9]; whole body oxygen extraction ratio,45%
same,"Organ blood flow, change from control: Bone",[10],No
same,"Organ blood flow, change from control: Brain",[10],Yes (+40%)
same,"Organ blood flow, change from control: Gastrointestinal",[10],No
same,"Organ blood flow, change from control: Liver",[10],No
same,"Organ blood flow, change from control: Lung",[10],Yes (−53%)
same,"Organ blood flow, change from control: Myocardium",[10],Yes (+80%)
same,"Organ blood flow, change from control: Pancreas",[10],No
same,"Organ blood flow, change from control: Renal",[10],No
same,"Organ blood flow, change from control: Skeletal muscle",[10],No
same,"Organ blood flow, change from control: Skin",[10],No
same,"Organ blood flow, change from control: Spleen",[10],Yes (−39%)
same,"Organ blood flow, change from control: Total (= Cardiac output)",[10],No
same,MAP,[11],142 ± 6 mm Hg
same,Plasma cGMP,[11]; listed as oxyHb-HD,17.22 ± 1.02*+ μg/ml and 17.22 ± 1.02 μg/ml
same,"Cyclic GMP levels in regional interstitial microdialysate, MU",[12]; MU,17.98* μg/ml
same,"Cyclic GMP levels in regional interstitial microdialysate, BO",[12]; bone,18.64* μg/ml
same,"Cyclic GMP levels in regional interstitial microdialysate, BR",[12]; brain,19.94* μg/ml
same,"Cyclic GMP levels in regional interstitial microdialysate, GI",[12]; gastrointestinal tract,12.68* μg/ml
same,"Cyclic GMP levels in regional interstitial microdialysate, HE",[12]; heart,14.44* μg/ml
same,"Cyclic GMP levels in regional interstitial microdialysate, LI",[12]; liver,20.34* μg/ml
same,"Cyclic GMP levels in regional interstitial microdialysate, LU",[12]; lung,18.74* μg/ml
same,"Cyclic GMP levels in regional interstitial microdialysate, SP",[12]; spleen,16.40* μg/ml
same,CO,[2]; oxyHb-HD alone,2880 ± 245 mL/min
same,MAP,"[3]; oxyHb-HD alone, n = 3",146 ± 5 mm Hg
same,cGMP,"[3]; oxyHb-HD alone, n = 3, mean ± sem",17.80 ± 0.95 µg/mL
same,Cyanide,"blood, n = 6",0.13 ± 0.03 mg/L
same,Lactate,"dog, in vivo",2.2 ± 0.3 meq/L
